{
  "source": "patent US20250319089A1",
  "about": "“STABLE LYOPHILISATES COMPRISING 5,10-METHYLENE-(6R)-TETRAHYDROFOLIC ACID” (Merck Patent GMBH, priority 2022, published 2025)",
  "origin": "cited, not measured here",
  "data": [
    {"smiles": "Nc1nc2c(c(=O)[nH]1)N1CN(c3ccc(C(=O)N[C@@H](CCC(=O)O)C(=O)O)cc3)C[C@H]1CN2", "note": "[5,10-methylene-(6R,S)-tetrahydrofolic acid]", "values": [
      {"measurement": "purity after 24 hours compared to the starting purity", "setting": "24 hours following dissolution in water", "result": 44.9, "unit": "%"},
      {"measurement": "purity after 7 hours", "setting": "re-constituted lyophilizate, 7 hours", "result": 84, "unit": "%"},
      {"measurement": "loss of purity per hour (degradation rate)", "setting": "re-constituted lyophilizate, linear regression", "result": 2.3, "unit": "% purity per hour"}
    ]}
  ]
}
